Test results taken from a melting point compilation (Tetko et al.; mined from patent text by program, amines drawn as free bases though some values may be those of a salt).

melting point [°C] | Compound
169 to 170 | O=[N+]([O-])c1ccc(Cn2c(S(=O)(=O)C(F)(F)C(F)F)nc(-c3ccc(F)cc3)c2-c2ccc(F)cc2)cc1
151 to 153 | CC(C)(NC(=O)CCn1cnc(C=O)c1)c1ccc(Cl)cc1
207 to 208 | CC1(C)CCC(C)(C)c2cc3cc(-c4csc(C(=O)O)c4)ccc3cc21
276 to 279 | CN1CCN(c2ccc(Nc3ncc4c(n3)S/C(=C/c3ccc([N+](=O)[O-])cc3)C(=O)N4)cc2)CC1
272 to 274 | Cc1cc2ncc(NC(=O)C=Cc3ccc(O)c(O)c3)c(-c3ccccc3Cl)c2cc1C
120 to 124 | Nc1nc2c(s1)CCN(CC=Cc1ccccc1)CC2
72 to 76 | CSc1nc(I)ncc1Br
195 to 197 | CN1CCN(CCC#Cc2cc3c(Nc4ccc5[nH]ccc5c4)c(C#N)cnc3s2)CC1
191 to 192 | COc1ccc(C(=O)Nc2cccnc2)cc1NC(=S)Nc1cccc(C(=O)O)c1
59 to 61 | CCOC(=O)COc1ccc2c(c1)CCC2=O
88 to 90 | Cc1ccc(S(=O)(=O)OCC(C)(O)C(=O)c2ccccc2)cc1 (centres undefined)
154 to 157 | CN(C)CC#Cc1cc(CN2CCOCC2)cc2c(=O)c(C(=O)NCc3ccc(Cl)cc3)cn(C)c12
166 to 169 | CNCC(=O)N(C)Cc1ccc(CCn2cnc3cc(-c4ccc(Cl)cc4)sc3c2=O)cc1
209 to 211 | O=C1NN=C(c2cc3ccccc3o2)CO1
122 to 125 | COC(=O)Cc1cc2c(cc1CC(=O)NCCc1ccc(OC)c(OC)c1)OCO2
168 to 171 | CC(C)c1cccc(C(C)C)c1NC(=O)[C@H](Cc1ccc(OCc2ccccc2)cc1)NC(=O)OCC1c2ccccc2-c2ccccc21
255 to 256 | C[C@H]1CN(c2c(F)c(F)c3c(=O)c(C(=O)O)cn(C4CC4)c3c2F)C[C@H]1N (relative stereo)
105 | CC(=O)Nc1ccc2ccccc2c1-c1c(P(c2ccccc2)c2ccccc2)ccc2ccccc12
124 to 125 | COc1cc(Nc2nccc(-c3ccc(NCCCNC(C)C)nc3)n2)cc(OC)c1OC
119 to 120 | O=CC(=Cc1ccc(OCc2ccccc2)cc1)C(C=O)=Cc1ccc(OCc2ccccc2)cc1
140 to 142 | COC1(c2cc(F)cc(Sc3ccc(/C(C)=N/O)c(O)c3)c2)CCOCC1
205 to 226 | O=C(OC[C@@H]1CC(c2ccc(-c3ccc(N4C[C@H](Cn5ccnn5)OC4=O)cc3F)cn2)=NO1)c1cnccn1
135 to 137 | COc1ccc(CCNC(=O)C(=O)NCCCCCCNC(=O)OC(C)(C)C)cc1OC1CCCC1
112 to 113 | Nc1cccc(C(=O)c2ccc(Oc3ccccc3)c(N)c2)c1

melting point [°C] | Compound
165 to 166 | COC(=O)c1ccc(COc2ccc3c(c2)CCN(C2CCN(C4CCC4)CC2)C3=O)cc1
148 to 150 | Nc1nc2ccccc2c2c1ncn2CCOCC#Cc1cccs1
212 to 214 | COc1ccc(NC(=O)c2cc(N)ccc2NC(=O)c2ccc(C(C)(C)C)cc2)cc1
130 to 131 | O=c1ccn(-c2cccc(C(F)(F)F)c2)nc1-c1ccnn1-c1ccc(F)cc1
42.3 to 44.6 | O=C1NC(=O)C(Cc2ccc(OCCn3ccc4ccccc43)cc2)S1 (centres undefined)
105 to 107 | N#CCOc1cc2ccccc2cc1I
69 to 70 | CC(C)(C)C(=O)C(N)=O
145 to 148 | O=C(O)C1CCCN1S(=O)(=O)c1ccc(F)cc1 (centres undefined)
172 to 174 | O=C(O)COc1cccnc1Br
94 to 97 | CC(C)OC(=O)C1Oc2ccccc2Cc2ccccc2O1
> 260 | COc1cccc2c1C(=O)c1sc(-c3ccccc3)nc1C2=O
148 to 150 | COc1ccc(-c2nc(CN3CCOCC3)nc3cc(OC)c(OC)cc23)cc1OC
158 to 160 | CC(=O)c1cn(C)c2ccc(F)cc12
90 to 92 | Cc1cc(SCC#Cc2ccccc2)ccc1OCC(=O)O
114 to 116 | COc1cc(N)c(Cl)cc1C(C)=O
56 to 58 | CC(=O)C(C)(C)CS(=O)(=O)c1ccccc1
206 to 208 | CC(c1oc2ccccc2c(=O)c1-c1cccc(F)c1)n1nc(-c2ccc3cn[nH]c3c2)c2c(N)ncnc21 (centres undefined)
64.5 to 65 | COCCN(CCOC)c1ccc(NC(=O)Nc2ccc(Oc3ccncc3)cc2)cc1C(F)(F)F
103 to 105 | CC(CCc1ccc(OCCO)cc1)NCC(O)c1cccc(Cl)c1 (centres undefined)
94 to 96 | N#Cc1cccc(CN2C(=O)C3(COc4cc5c(cc43)OCCO5)c3ccccc32)c1 (centres undefined)
110 to 111 | N#Cc1cc(Cl)cc(CO)c1
135 to 138 | CN(C=O)c1c2oc3ccccc3c2nn1C
90 to 92 | COC(=O)c1ccc(OCCCOc2ccccc2)cc1O
135 to 136 | NC(Cn1cncn1)(Cn1cncn1)c1ccc(Cl)cc1Cl

melting point [°C] | Compound
135 to 137 | CC(N)CC(=O)Nc1c(OCC(F)(F)F)cccc1-c1ccccn1 (centres undefined)
187 to 189 | CCCCNC(=O)c1cn2nc(N3CCN(C(=O)c4ccccc4C(F)(F)F)CC3)ccc2n1
50 to 51 | COCCCOc1cc(CBr)ccc1OC
218 | CCn1cc(-c2ccc(O)cc2)nc1SC
129 to 130 | COc1ccc(OCCOCn2cnc3ncnc(N)c32)cc1
88 to 89 | CC(C)(C)C(=O)SC1CCN(C(C(=O)C2CC2)c2ccccc2F)CC1 (centres undefined)
98 | Cc1cc(I)cc(C=CC#N)c1
190 | Cc1cc2c(NC(=S)N3Cc4ccsc4CC3CO)cccc2cn1 (racemic)
41.5 to 43 | CCCCCCCCCCCCCCCCOC[C@@H]1OCCC[C@H]1O (relative stereo)
215 to 216 | CC(C)n1nc(-c2c(NCc3cccnc3)nc(N)nc2-c2ccccc2)ccc1=O
211 to 214 | O=P(Cc1ccc2ccccc2c1-c1c(CP(=O)(c2ccc(F)cc2)c2ccc(F)cc2)ccc2ccccc12)(c1ccc(F)cc1)c1ccc(F)cc1
165 to 166 | O=C(c1ccco1)N1CCN(c2cc(-c3ccc(F)cc3)c3c(n2)CCC3)CC1
171 to 172 | COc1ccc(C(CC(=O)Nc2ncccc2C)N2C(=O)c3ccccc3C2=O)cc1OC (centres undefined)
146 to 148 | CCCCC(=N)NC(=O)NC1CCCCC1
196 to 199 | CC(=O)Nc1nc(C=O)cs1
167 to 169 | CNC1CC=C(c2c[nH]c3ccc(NC(=N)c4cccs4)cc23)CC1 (centres undefined)
> 250 | Nc1nc(N)nc(-c2ccc(NS(=O)(=O)c3cccc4ccccc34)cc2)n1
71 to 72 | C#Cc1ccc(OC)c(OC)c1
83.4 to 88.7 | Cc1cc(I)ccc1Nc1c(-c2nnn[nH]2)ccc(F)c1F
64 to 66 | Fc1ccc(COc2ncc(F)c(NCOCc3ccccc3)n2)cc1
191 to 195 | CCCn1c(-n2nc(-c3c(-c4ccccc4)nn4ccccc34)ccc2=O)cc(=O)n(CC(=O)OC)c1=O
163 | Cc1cc(C(=O)N2Cc3ccc(C(=O)C(Cl)(Cl)Cl)n3Cc3ccccc32)ccc1I
157 | CCOc1ccc(C(=O)CC(C(=O)O)N2CCOCC2)cc1OC (centres undefined)
169 to 170 | CCOC(=O)C1=C(C)NC(CN2C(=O)c3ccccc3C2=O)=C(C(=O)OCC)C1c1ccccc1 (centres undefined)

melting point [°C] | Compound
198 to 201 | O=C1NCCN1c1ccc(C2CCN(C(=O)C(F)(F)F)CC2)cc1
123 to 124 | Cc1cn(-c2cc(N)cc(C(F)(F)F)c2)cn1
212 to 213 | C=C(C)C(=O)NC1=NN(c2ccc(Cl)c(Cl)c2)C(=O)C1
188 to 189 | CN(c1cc(F)cc2cc(C3=NCCS3)[nH]c12)S(=O)(=O)c1cccs1
77 to 78 | CCCCCCON=C(C(=O)OCC)c1csc(N)n1
124 to 126 | CCCc1nn(-c2ccc(C(F)(F)F)cn2)cc1CCCOc1ccc(CCC(=O)O)c(C)c1
151 to 154 | CS(=O)(=O)c1ccc(-c2nn3c(-c4ccccc4)coc3c2-c2ccc(F)cc2)cc1
111 to 112 | CCC(=O)c1cc(-c2ccccc2)no1
121 to 123 | COc1ccc(C(=O)c2ccccc2-c2ccc(C#N)cc2)cc1
120 to 121 | CCCn1c(=O)c2c(N3CCN(C)CC3)cc(Cl)cc2n(Cc2ccccc2)c1=O
56 to 57 | Cc1cc(Cl)ccc1N=CN(C)SSN(C)C=Nc1ccc(Cl)cc1C
73 to 74 | CCOC(=O)C=Cc1ccc(N)cc1C
145 to 147 | Cc1ccc(S(=O)(=O)N(C)c2ccc(Cl)cc2C#N)cc1
260 to 262 | O=C(O)c1cc2ccccc2c(=O)s1
187 to 188 | Nc1cc(C(F)(F)C(F)(F)C(F)(F)C=CC(F)(F)C(F)(F)C(F)(F)c2ccc(O)c(N)c2)ccc1O
161 to 163 | Cc1c(N(C)C)cc(C(=O)CS(C)(=O)=O)cc1N(C)C
183 to 185 | CS(=O)(=O)c1ccc(N2CCC(=O)CC2)cc1
216 to 218 | O=C(Cl)c1ccc2c(c1)C(C(F)(F)F)(C(F)(F)F)c1cc(C(=O)Cl)ccc1O2
241 to 243 | Cn1cc2c(O)cc(-c3ccccc3)nc2n1
226 to 227 | O=C(O)COc1ccc2c(-c3ccc(Cl)cc3F)noc2c1Cl
138 to 140 | COc1ccccc1Oc1c(NS(=O)(=O)c2ccc(CC(C)C)cc2)nc(-c2ncccn2)nc1OCCOC(N)=O

Compound | melting point [°C]
O=C1OC(=O)[C@@H](Cl)[C@@H]1Cl (relative stereo) | 90 to 92
Fc1ccc2[nH]cc(C3=CCN(CC4COc5ccc6c(c5O4)CCCO6)CC3)c2c1 (centres undefined) | 205 to 206
C[C@@H]1C(=O)C[C@H]2C[C@@H]1OO[C@@]2(C)/C=C\c1ccccc1 | 60
CC1C(O)C(C(C)(C)O)C(=O)N1c1ccc(C#N)c(Cl)c1 (centres undefined) | 131 to 132
COC(=O)c1ccc(-c2ccc(-c3cn([C@H]4CN5CCC4CC5)nn3)s2)cc1Cl | 200
CC(C)(C)[Si](C)(C)O[C@@H]1c2sccc2[C@]2(O[Si](C)(C)C(C)(C)C)C[C@H]1OC2=O | 133 to 137
